According to paper PMC10044449 (Xenobiotica; the fate of foreign compounds in biological …, 2022):
Several values for one entry are separate records, joined by “and”; a condition that tells them apart may be missing. Equal entries are not always repeated.

Legend:
Plasma protein binding [1] = format: in vitro ADME; details: male, CD-1, mouse, pH 7.4, Mean fu (fraction unbound), 37 °C
Plasma protein binding [2] = format: in vitro ADME; details: rat plasma
[3] = Liver microsomal metabolic stability; format: in vitro ADME, mouse
[4] = Hepatocyte metabolic stability; details: human, hepatocytes
[5] = mice received ca. 0.4 mg/kg; ref Bhatt et al. 2020; cited from earlier work
Liver microsomal binding [6] = format: in vitro ADME; details: human, liver microsomes, pH 7.4
[7] = tested on: microbial versus mammalian β-glucuronidases; details: ref Pellock et al. 2018; cited from earlier work
Caco-2 cells = assay: Caco-2 bidirectional permeability; details: Caco-2, without inhibitor mix
[8] = Caco-2 bidirectional permeability; details: human, Caco-2, pH 7.4
Liver microsomal binding [9] = format: in vitro ADME; details: ICR/CD-1, mouse, liver microsomes, pH 7.4
[10] = Prediction of in vivo CLH from in vitro CLint; format: in vitro ADME, mouse; details: for Predicted in vivo CLH: mouse
[11] = Liver microsomal metabolic stability; format: in vitro ADME, rat
[12] = UHPLC/MS metabolite characterisation, liver microsome incubations; format: in vitro ADME; details: 15 minute human microsome incubation
Liver microsomal binding [13] = format: in vitro ADME; details: Sprague Dawley, rat, liver microsomes, pH 7.4
[14] = Liver microsomal metabolic stability
Plasma protein binding [15] = format: in vitro ADME; details: both, human, pH 7.4, Mean fu (fraction unbound), 37 °C
[16] = Efficacy in a mouse model; format: in vivo; details: corresponds to ca. 0.4 mg/kg in mice
[17] = Mouse pharmacokinetic study; format: in vivo, Swiss albino mice; details: mice; for AUC(0-t): AUClast
[18] = Prediction of in vivo CLH from in vitro CLint; format: in vitro ADME, rat; details: for Predicted in vivo CLH: rat
[19] = UHPLC/MS metabolite characterisation, liver microsome incubations; format: in vitro ADME; details: 5 minute rat liver microsome incubation
[20] = Hepatocyte metabolic stability; details: ICR/CD-1, mouse, hepatocytes
[21] = Prediction of in vivo CLH from in vitro CLint; format: in vitro ADME
human hepatocytes = assay: UHPLC/MS metabolite characterisation, hepatocyte incubations; format: in vitro ADME; details: 120 minute human hepatocyte incubation
Escherichia coli GUS = details: ref Pellock et al. 2018; cited from earlier work
[22] = UHPLC/MS metabolite characterisation, liver microsome incubations; format: in vitro ADME; details: 5 minute mouse liver microsome incubation
[23] = Hepatocyte metabolic stability; details: Sprague Dawley, rat, hepatocytes
[24] = ICR/CD-1, mouse, liver microsomes, pH 7.4
[25] = Sprague Dawley, rat, liver microsomes, pH 7.4

Which fraction unbound at 4 h, 2 μM (Plasma protein binding [1]) does the source give for `C1CCc2c(c(N3CCOCC3)nc3sc4c(N5CCNCC5)nnnc4c23)C1` [UNC10201652, 4-(8-(piperazin-1-yl)-1,2,3,4-tetrahydro-[1,2,3]triazino[4′,5′:4,5]thieno[2,3-c]isoquinolin-5-yl)morpholine] here?
Its fraction unbound at 4 h, 2 μM is 0.0648.

And the “Extent of plasma protein binding” value (Plasma protein binding [2])?
The value was 89%.

What about the half-life at 1 μM [3, 24] of the same compound?
The half-life at 1 μM was 12 min.

And the microsomal CLint at 1 μM [3, 24]?
The microsomal CLint at 1 μM was 115 µL/min/mg.

What about the “Stability in control incubation in the absence of NADPH” value (shortened to “Stability in control incubation”) ([3]; mouse liver microsomes, without NADPH, 45 min) of the same compound?
Its value is “stable”.

What about the half-life at 1 μM [4] of the same compound?
The half-life at 1 μM was 66.4 min.

And the hepatocyte CLint at 1 μM [4]?
Its hepatocyte CLint at 1 μM is 20.9 µL/min/1e6 cells.

And the “Efficacy in a mouse model” value [5]?
Its value is “good efficacy”.

What about the fraction unbound at 4 h, 2 μM (Liver microsomal binding [6]) of the same compound?
The fraction unbound at 4 h, 2 μM was 0.642.

What about the “Specificity microbial versus mammalian β-glucuronidases” value [7] of the same compound?
Its value is “highly specific inhibitor”.

What about the “Mean A-B Papp” value (Caco-2 cells; 120 min, pH 7.4) of the same compound?
Its value is 5.88 cm/s (×10^−6).

And the “Mean B-A Papp” value (Caco-2 cells; 120 min, pH 7.4)?
The value was 15.9 cm/s (×10^−6).

And the efflux ratio at 120 min, 10 μM [8]?
Its efflux ratio at 120 min, 10 μM is 2.7.

And the fraction unbound at 4 h, 2 μM (Liver microsomal binding [9])?
The fraction unbound at 4 h, 2 μM was 0.453.

What about the “Scaled hepatocyte CLint as % of hepatic blood flow” value ([10]; mouse hepatocytes) of the same compound?
The value was > 60 % of hepatic blood flow.

What about the “Predicted in vivo CLH” value ([10]; scaled from hepatocyte CLint) of the same compound?
Its value is 75.9 mL/min/kg.

What about the “Predicted in vivo CLH” value ([10]; scaled from microsomal CLint) of the same compound?
Its value is 42.1 mL/min/kg.

What about the half-life at 1 μM [11, 25] of the same compound?
The half-life at 1 μM was 7.14 min.

And the microsomal CLint at 1 μM [11, 25]?
Its microsomal CLint at 1 μM is 194 µL/min/mg.

What about the “Stability in control incubation” value ([11]; rat liver microsomes, without NADPH, 45 min) of the same compound?
The value was “stable”.

What about the “Area percentage in sample (% of total drug-related material by MS area)” value [12] of the same compound?
Its value is “ca. 82%”.

And the fraction unbound at 4 h, 2 μM (Liver microsomal binding [13])?
Its fraction unbound at 4 h, 2 μM is 0.618.

And the “Stability in control incubation” value ([14]; human liver microsomes, without NADPH, 45 min)?
Its value is “stable”.

And the half-life at 1 μM ([14]; human, microsomes, pH 7.4)?
Its half-life at 1 μM is 28.8 min.

What about the microsomal CLint at 1 μM ([14]; human, microsomes, pH 7.4) of the same compound?
The microsomal CLint at 1 μM was 48.1 µL/min/mg.

And the fraction unbound at 4 h, 2 μM (Plasma protein binding [15])?
The fraction unbound at 4 h, 2 μM was 0.0548.

What about the Local gut concentration [16] of the same compound?
The Local gut concentration was “approximately 90 μM”.

What about the AUC(0-inf) ([17]; male, Swiss albino, mouse, plasma, iv, 3 mg/kg, AUCINF, IV 3 mg/kg) of the same compound?
The AUC(0-inf) was 154 ng·h/mL.

What about the AUC(0-t) ([17]; male, Swiss albino, mouse, plasma, iv, 3 mg/kg, IV 3 mg/kg) of the same compound?
The AUC(0-t) was 137 ng·h/mL.

What about the Vd ([17]; male, Swiss albino, mouse, plasma, iv, 3 mg/kg, Vss, IV 3 mg/kg) of the same compound?
Its Vd is 16.7 L/kg.

And the AUC(0-t) ([17]; male, Swiss albino, mouse, plasma, po, 3 mg/kg, PO 3 mg/kg)?
Its AUC(0-t) is roughly 20 ng·h/mL.

And the Cmax ([17]; male, Swiss albino, mouse, plasma, po, 3 mg/kg, Cmax, PO 3 mg/kg)?
The Cmax was 15.2 ng/mL.

What about the Tmax ([17]; male, Swiss albino, mouse, plasma, po, 3 mg/kg, Tmax, PO 3 mg/kg) of the same compound?
Its Tmax is 15 min.

What about the “Tolerability / clinical signs” value ([17]; 3 mg/kg IV and PO, with and without ABT, up to 24 h post dose) of the same compound?
The value was “no clinical signs were observed”.

And the “Plasma concentration at the 24 h time point” value ([17]; IV 3 mg/kg, 24 h)?
The value was “not detectable”.

And the “Decrease in plasma clearance after ABT” value ([17]; IV 3 mg/kg, ABT versus no ABT)?
The value was “ca. 2.5 fold”.

And the “Increase in Vss after ABT” value ([17]; IV 3 mg/kg, ABT versus no ABT)?
Its value is “ca. 2 fold”.

And the “Increase in plasma half-life after ABT” value ([17]; IV 3 mg/kg, ABT versus no ABT)?
Its value is “ca. 6 fold”.

And the “CL (plasma clearance)” value ([17]; IV 3 mg/kg, 3 mg/kg)?
The value was 325.0 mL/min/kg.

And the Vss ([17]; IV 3 mg/kg, 3 mg/kg)?
The Vss was 16.7 L/kg.

What about the “Time of Cmax post dose” value ([17]; PO 3 mg/kg) of the same compound?
Its value is 15 min.

What about the “F (oral bioavailability, from AUClast)” value ([17]; PO 3 mg/kg + ABT 50 mg/kg 2 h prior) of the same compound?
The value was 184%.

What about the “Increase in plasma Cmax after ABT” value ([17]; PO 3 mg/kg, ABT versus no ABT) of the same compound?
Its value is “greater than 10 fold”.

What about the “F (oral bioavailability, from AUClast)” value ([17]; PO 3 mg/kg, 3 mg/kg) of the same compound?
Its value is 15% and 15^c %.

And the “Scaled hepatocyte CLint as % of hepatic blood flow” value ([18]; rat hepatocytes)?
The value was > 60 % of hepatic blood flow.

And the “Predicted in vivo CLH” value ([18]; scaled from hepatocyte CLint)?
Its value is 59.8 mL/min/kg.

What about the “Predicted in vivo CLH” value ([18]; scaled from microsomal CLint) of the same compound?
Its value is 43.5 mL/min/kg.

And the “Area percentage in sample (% of total drug-related material by MS area)” value [19]?
Its value is “ca. 92%”.

And the half-life at 1 μM [20]?
Its half-life at 1 μM is 11.9 min.

What about the hepatocyte CLint at 1 μM [20] of the same compound?
The hepatocyte CLint at 1 μM was 116 µL/min/1e6 cells.

And the “Predicted CLH as % of hepatic blood flow” value ([21]; human)?
Its value is “approximately 22 % of hepatic blood flow”.

What about the “Predicted in vivo CLH” value ([21]; human, scaled from hepatocyte CLint) of the same compound?
Its value is 4.65 mL/min/kg.

What about the “Predicted in vivo CLH” value ([21]; human, scaled from microsomal CLint) of the same compound?
The value was 3.51 mL/min/kg.

And the “Predicted CLH in human” value ([21]; overall figure from microsomal and hepatocyte data)?
Its value is 4 mL/min/kg.

What about the “Area percentage in sample (% of total drug-related material by MS area)” value (human hepatocytes) of the same compound?
The value was “ca. 48%”.

And the IC50 (Escherichia coli GUS)?
The IC50 was 117 nM.

What about the “Area percentage in sample (% of total drug-related material by MS area)” value [22] of the same compound?
Its value is “ca. 86%”.

What about the half-life at 1 μM [23] of the same compound?
Its half-life at 1 μM is 9.89 min.

And the hepatocyte CLint at 1 μM [23]?
The hepatocyte CLint at 1 μM was 140 µL/min/1e6 cells.

Which microsomal CLint at 1 μM ([14]; human, microsomes, pH 7.4) does the source give for `COc1ccc2c(c1)[C@]13CCCC[C@@H]1[C@H](C2)N(C)CC3` [dextromethorphan, reference compound] here?
The microsomal CLint at 1 μM was 44.8 µL/min/mg.

With `C[C@]12CC[C@@H]3c4ccc(OS(=O)(=O)O)cc4CC[C@H]3[C@@H]1CCC2=O` [oestrone 3-sulfate, reference compound] as the compound, how does the Efflux ratio (Caco-2 cells) read?
Its Efflux ratio is 105.
